The source made the active and inactive calls. No cut-off for these calls is given here.
What was measured:
[1] = test system: Human immunodeficiency virus 1; test: Inhibition of viral RNA production in HIV-1-infected MT-2 cells.; assay type: functional; conditions: Human immunodeficiency virus 1, MT2
[2] = target: Human immunodeficiency virus type 1 protease (Human immunodeficiency virus 1, UniProt Q72874); test: Inhibitory activity against HIV-1 protease
MT2 = test: Antiviral activity assessed in a cell based assay measuring the inhibition of viral RNA production in HIV-1-infected MT-2 cells at concentrations of up to 50 ug/mL; not active; assay type: functional; conditions: Homo sapiens

| SMILES | IC90 [1] [nM] | Ki [2] [nM] | IC90 (MT2) |
| --- | --- | --- | --- |
| CCOC(=O)c1cccc(CN2C(=O)N(CCCCCO)[C@H](Cc3ccccc3)[C@H](O)[C@@H](O)[C@H]2Cc2ccccc2)c1 | 365 | 0.72 | – |
| COCCCCCN1C(=O)N(CCCCCOC)[C@H](Cc2ccccc2)[C@H](O)[C@@H](O)[C@H]1Cc1ccccc1 | – | 96 | inactive |
| O=C1N(CCCCCO)[C@H](Cc2ccccc2)[C@H](O)[C@@H](O)[C@@H](Cc2ccccc2)N1Cc1cccc(CO)c1 | 76 | 0.058 | – |
| O=C(NCCCCCN1C(=O)N(CCCCCNC(=O)c2ccncc2)[C@H](Cc2ccccc2)[C@H](O)[C@@H](O)[C@H]1Cc1ccccc1)c1ccncc1 | 9900 | 16 | – |
| O=C1N(CCCCO)[C@H](Cc2ccccc2)[C@H](O)[C@@H](O)[C@@H](Cc2ccccc2)N1CCCCO | 22700 | 42 | – |
| CC(=O)NCCCCCN1C(=O)N(CCCCCNC(C)=O)[C@H](Cc2ccccc2)[C@H](O)[C@@H](O)[C@H]1Cc1ccccc1 | – | 350 | inactive |
| O=C1N(CCCCCO)[C@H](Cc2ccccc2)[C@H](O)[C@@H](O)[C@@H](Cc2ccccc2)N1Cc1ccc(CO)cc1 | 108 | 0.1 | – |
| O=C(O)CCCCCN1C(=O)N(CCCCCC(=O)O)[C@H](Cc2ccccc2)[C@H](O)[C@@H](O)[C@H]1Cc1ccccc1 | – | 0.24 | inactive |
| O=C1N(CCCCCCO)[C@H](Cc2ccccc2)[C@H](O)[C@@H](O)[C@@H](Cc2ccccc2)N1CCCCCCO | 1510 | 0.47 | – |
| O=C(Cc1cccnc1)NCCCCCN1C(=O)N(CCCCCNC(=O)Cc2cccnc2)[C@H](Cc2ccccc2)[C@H](O)[C@@H](O)[C@H]1Cc1ccccc1 | 3130 | 8.9 | – |
| O=C(NCCCCCN1C(=O)N(CCCCCNC(=O)c2ccccc2)[C@H](Cc2ccccc2)[C@H](O)[C@@H](O)[C@H]1Cc1ccccc1)c1ccccc1 | – | 59 | inactive |
| COC(=O)CCCCCN1C(=O)N(CCCCCC(=O)OC)[C@H](Cc2ccccc2)[C@H](O)[C@@H](O)[C@H]1Cc1ccccc1 | 30900 | 29 | – |
| O=C(NCCCCCN1C(=O)N(CCCCCNC(=O)c2cccc(F)c2)[C@H](Cc2ccccc2)[C@H](O)[C@@H](O)[C@H]1Cc1ccccc1)c1cccc(F)c1 | 8770 | 14 | – |
| O=C1N(CCCCCO)[C@H](Cc2ccccc2)[C@H](O)[C@@H](O)[C@@H](Cc2ccccc2)N1Cc1ccccc1 | 398 | 0.68 | – |
| O=C1N(CCCCCO)[C@H](Cc2ccccc2)[C@H](O)[C@@H](O)[C@@H](Cc2ccccc2)N1CC1CC1 | 814 | 0.99 | – |
| CS(=O)(=O)NCCCCCN1C(=O)N(CCCCCNS(C)(=O)=O)[C@H](Cc2ccccc2)[C@H](O)[C@@H](O)[C@H]1Cc1ccccc1 | – | 270 | inactive |
| O=C1N(CCCCCCCCO)[C@H](Cc2ccccc2)[C@H](O)[C@@H](O)[C@@H](Cc2ccccc2)N1CCCCCCCCO | 17200 | 500 | – |
| O=C1N(CCCCCO)[C@H](Cc2ccccc2)[C@H](O)[C@@H](O)[C@@H](Cc2ccccc2)N1CCCCCO | 953 | 1.4 | – |
| CNC(=O)NCCCCCN1C(=O)N(CCCCCNC(=O)NC)[C@H](Cc2ccccc2)[C@H](O)[C@@H](O)[C@H]1Cc1ccccc1 | – | 270 | inactive |
| O=C(NCCCCCN1C(=O)N(CCCCCNC(=O)c2ccc(F)cc2)[C@H](Cc2ccccc2)[C@H](O)[C@@H](O)[C@H]1Cc1ccccc1)c1ccc(F)cc1 | – | 18 | inactive |
| NCCCCCN1C(=O)N(CCCCCN)[C@H](Cc2ccccc2)[C@H](O)[C@@H](O)[C@H]1Cc1ccccc1 | – | 1250 | inactive |
| O=C1N(CCCCCO)[C@H](Cc2ccccc2)[C@H](O)[C@@H](O)[C@@H](Cc2ccccc2)N1Cc1cccc(O)c1 | 36 | 0.081 | – |
| O=C1N(CCCO)[C@H](Cc2ccccc2)[C@H](O)[C@@H](O)[C@@H](Cc2ccccc2)N1CCCO | – | 51 | inactive |
| O=C1N(CCCCCO)[C@H](Cc2ccccc2)[C@H](O)[C@@H](O)[C@@H](Cc2ccccc2)N1Cc1ccc2ccccc2c1 | 199 | 0.24 | – |
| O=C1N(CCCCCCO)[C@H](Cc2ccccc2)[C@H](O)[C@@H](O)[C@@H](Cc2ccccc2)N1Cc1ccc2ccccc2c1 | 264 | 1.7 | – |
| O=C1N(CCCCCCCO)[C@H](Cc2ccccc2)[C@H](O)[C@@H](O)[C@@H](Cc2ccccc2)N1CCCCCCCO | 9010 | 34 | – |
| NCCCCN1C(=O)N(CCCCN)[C@H](Cc2ccccc2)[C@H](O)[C@@H](O)[C@H]1Cc1ccccc1 | – | 1250 | inactive |

Reference: ChEMBL document CHEMBL1150036, “Functionalized aliphatic P2/P2 analogs of HIV-1 protease inhibitor DMP323” (Bioorg Med Chem Lett, 1997)
